Experimental data published in patent US20110065749A1, “METHOD AND PHARMACEUTICAL COMPOSITION FOR TREATMENT OF MENTAL DISORDERS” (ACTIVE CO. LTD., priority 2008, published 2011).
Counter-ions that a name gives are not always drawn.

Assays:
Insomnia = assay: Case 11: insomnia in an elderly person; type: in vivo, human
Protocol: Case 11: Insomnia in an Elderly Person A person had had no history of insomnia or depression before they retired from their company at mandatory retirement age. […] Being seriously distressed by insomnia, they had been prescribed hypnotics at two or three mental clinics. The hypnotics had made them easily fall down when going to the bathroom at night, and made them feel half awake in the morning, with memory impairment. The patient was started on 50 mg Cephadol® twice a day (after dinner and before sleeping).

Fibromyalgia [1] = assay: Case 16: fibromyalgia (2) patient; type: in vivo, human
Excerpt: […] There were persistent systemic malaise, lassitude, depressed mood, sleeplessness, neck stiffness and systemic pain. Their score of depression on Hamilton D scale was 25 to 28. No hematological abnormality was detected. As a result of overall judgment based on examinations including a tender point examination, they were diagnosed as having fibromyalgia. They were unresponsive to tricyclic or tetracyclic antidepressants, SSRIs, SNRIs, and Moclobemide. Then, they continued the treatment with 60 mg/day fluoxetine. […] It was concluded that the onset of their depression was due to the systemic pain, and the depression was improved by the drastic improvement of the systemic pain.

[2] = test system: evoked potential of hypothalamus by vestibular nuclei stimulation; conditions: rat experiments; cited from earlier work
[3] = test system: Attention Deficit Hyperactivity Disorder (ADHD); assay: Case 1: ADHD patient treated with Cephadol; type: in vivo, human
Protocol: Case 1: Attention Deficit Hyperactivity Disorder (ADHD)
Patient was a person, who had often shown violent behaviors. Quarreling with a bad-mannered person on the road and performing violent acts such as hitting had occurred once or twice a week. […] When they discontinued the medication with 75 mg/day Cephadol®, the symptom returned to the previous state. The effect of Cephadol® appeared in about two days, and the symptom returned to the original state in 5 days after discontinuation of the drug.

Fibromyalgia [4] = assay: Case 18: fibromyalgia (4) patient; type: in vivo, human
Excerpt: Case 18: Fibromyalgia (4)
A person (housewife) is a patient with depression, having received regular medical treatment since seven years ago. […] However, a diagnosis with autoimmune disease or inflammatory disease was negative from their blood test. Due to back pain and fingertip pain, they were unable to make household work, and it was painful for them to hold even a light object by hand. They had pain at 15 points among the 18 tender points of the whole body, and was diagnosed with fibromyalgia. […] They had to stay in bed all day long, and such a condition lasted for the long term.

Bulimia = assay: Case 8: bulimia (2) patient; type: in vivo, human; conditions: 150 mg/day
Excerpt: Patient was a person, who had been suffering from bulimia. The bulimia persisted even after their marriage and childbearing.

[5] = test system: nystagmus by experimental disorder of balance function; conditions: rabbit experiments; cited from earlier work
Refractory Depression = assay: Case 2: refractory depression patient, HAMD; type: in vivo, human
Excerpt: For evaluation of the state of depression, for example, Hamilton's rating scale for depression (HAMD) is available. The HAMD was developed by Max Hamilton in 1960 for the purpose of measuring the severity of a patient diagnosed with depression (Hamilton, M., Journal of Neurology, Neurosurgery & Psychiatry, 23-56-62 (1960) and Hamilton, M., “Development of rating scale for primary depressive illness”, British Journal of Social and Clinical Psychology, 6: 278-296 (1967)). In view of its high usefulness, it is a representative scale of evaluation for depression, widely used in clinical researches and practices. The 17 item version is used for clinical trials of antidepressants in Japan, whereas the 21 item version and the 24 item version are used in Europe or other countries. When the severity is calculated using Hamilton's rating scale for depression (HAMD), each item is evaluated with three grades of 0-2, or five grades of 0-4. For example, the case is diagnosed as severe where the point is 20 or higher and, as the point decreases, the symptom is diagnosed as being improved. Case 2: Refractory Depression Patient was a person, who was unresponsive to any combination of SSRIs, SNRIs, tricyclic antidepressants, and antianxiety agents in their respective maximum doses. The score of HAMD was 23 points. […] Increasing the dose of Cephadol® to 150 mg/day improved the score of HAMD to 3 points. The improvement lasted even after other antidepressants were removed. Even 3 months later, the score of HAMD was still 3 points. When the dose of Cephadol® was reduced to 75 mg/day, the score of HAMD became 13 points after one week.

depression = assay: Case 9: depressed symptoms patient, HAMD; type: in vivo, human; conditions: 75 mg/day
Excerpt: For evaluation of the state of depression, for example, Hamilton's rating scale for depression (HAMD) is available. The HAMD was developed by Max Hamilton in 1960 for the purpose of measuring the severity of a patient diagnosed with depression (Hamilton, M., Journal of Neurology, Neurosurgery & Psychiatry, 23-56-62 (1960) and Hamilton, M., “Development of rating scale for primary depressive illness”, British Journal of Social and Clinical Psychology, 6: 278-296 (1967)). In view of its high usefulness, it is a representative scale of evaluation for depression, widely used in clinical researches and practices. The 17 item version is used for clinical trials of antidepressants in Japan, whereas the 21 item version and the 24 item version are used in Europe or other countries.
When the severity is calculated using Hamilton's rating scale for depression (HAMD), each item is evaluated with three grades of 0-2, or five grades of 0-4. For example, the case is diagnosed as severe where the point is 20 or higher and, as the point decreases, the symptom is diagnosed as being improved.
Case 9: Depressed Symptoms
Administration to the patient of 75 mg/day Cephadol® reduced the HAMD score from 20 points to 7 points after 3 days.

Alzheimer-Type Dementia = assay: Case 4: Alzheimer-type dementia patient; type: in vivo, human; conditions: 50 mg before sleeping, added to donepezil hydrochloride
Excerpt: Case 4: Alzheimer-Type Dementia

[6] = 50 mg twice a day, hypnotics halved

OC(CCCN1CCCCC1)(c1ccccc1)c1ccccc1 [Cephadol®, 1,1-diphenyl-4-piperidine-1-ylbuthan-1-ol monohydrochloride]
dose of concomitant hypnotics (Insomnia; 50 mg twice a day): reduced in dose by half | side effects (Insomnia; 50 mg twice a day): no side effects | sleep (Insomnia; 50 mg twice a day (after dinner and before sleeping)): became able to sleep well | memory impairment on the next morning (Insomnia; [6]): without memory impairment | staggering gait on awaking at night (Insomnia; [6]): free from staggering gait on awaking at night | score of Hamilton D scale (Fibromyalgia [1]; 100 mg/day added to fluoxetine, 25 to 28 before): 16 | neck stiffness and systemic pain (Fibromyalgia [1]; 100 mg/day for one week, added to 60 mg/day fluoxetine): reduced neck stiffness and systemic pain | activity of daily living (Fibromyalgia [1]; 100 mg/day, after two weeks): improved drastically | evoked potential of hypothalamus by vestibular nuclei stimulation [2]: inhibited the evoked potential of hypothalamus by vestibular nuclei stimulation | side effects ([3]; 75 mg/day): no side effects | impulsivity ([3]; 75 mg/day, on day seven): disappearance of the impulsivity | impulsivity ([3]; 75 mg/day, on day two): reduction of impulsivity | time until the symptom returned to the original state after discontinuation of the drug ([3]; after discontinuation of 75 mg/day): 5 days | malaise (Fibromyalgia [4]; 75 mg/day): significant improvement in malaise | mobility of large joints (objective) (Fibromyalgia [4]; 125 mg/day): the mobility of large joints increased | back pain and fingertip pain (Fibromyalgia [4]; dose increased to 125 mg/day): improved the back pain and fingertip pain | duration of the effect (Bulimia): more than two | overeating (Bulimia): stopped their overeating | side effects (Bulimia; more than two months): without any side effects | emergence of nystagmus by experimental disorder of balance function [5]: inhibited the emergence of nystagmus by experimental disorder of balance function | depressive symptom (Refractory Depression; 75 mg/day, HAMD 23 points before): significant improvement | score of HAMD (Refractory Depression; 150 mg/day, 3 months later, other antidepressants removed): 3 points | side effects (Refractory Depression; 75-150 mg/day): no side effects | score of HAMD (Refractory Depression; dose increased to 150 mg/day, 23 points before): 3 points | score of HAMD (Refractory Depression; dose reduced to 75 mg/day, after one week): 13 points | side effects (depression): There were side effects | HAMD score (depression; after 3 days, from 20 points): 7 points | excitation caused by donepezil hydrochloride (Alzheimer-Type Dementia): reduced the excitation
